Reference: article PMC12858405, “Ideal efficacy photoswitching for chromocontrol of TRPC4/5 channel functions in live tissues” (Nature Chemical Biology, 2026)

Target: T1, TRPC5-SYFP2 (Homo sapiens, UniProt Q9UL62)
T1 construct: expressed in transfected cells; host or cells: HEK 293 (ATCC CRL 1573), transiently transfected (jetPRIME)
T1 sequence (Q9UL62 1-973): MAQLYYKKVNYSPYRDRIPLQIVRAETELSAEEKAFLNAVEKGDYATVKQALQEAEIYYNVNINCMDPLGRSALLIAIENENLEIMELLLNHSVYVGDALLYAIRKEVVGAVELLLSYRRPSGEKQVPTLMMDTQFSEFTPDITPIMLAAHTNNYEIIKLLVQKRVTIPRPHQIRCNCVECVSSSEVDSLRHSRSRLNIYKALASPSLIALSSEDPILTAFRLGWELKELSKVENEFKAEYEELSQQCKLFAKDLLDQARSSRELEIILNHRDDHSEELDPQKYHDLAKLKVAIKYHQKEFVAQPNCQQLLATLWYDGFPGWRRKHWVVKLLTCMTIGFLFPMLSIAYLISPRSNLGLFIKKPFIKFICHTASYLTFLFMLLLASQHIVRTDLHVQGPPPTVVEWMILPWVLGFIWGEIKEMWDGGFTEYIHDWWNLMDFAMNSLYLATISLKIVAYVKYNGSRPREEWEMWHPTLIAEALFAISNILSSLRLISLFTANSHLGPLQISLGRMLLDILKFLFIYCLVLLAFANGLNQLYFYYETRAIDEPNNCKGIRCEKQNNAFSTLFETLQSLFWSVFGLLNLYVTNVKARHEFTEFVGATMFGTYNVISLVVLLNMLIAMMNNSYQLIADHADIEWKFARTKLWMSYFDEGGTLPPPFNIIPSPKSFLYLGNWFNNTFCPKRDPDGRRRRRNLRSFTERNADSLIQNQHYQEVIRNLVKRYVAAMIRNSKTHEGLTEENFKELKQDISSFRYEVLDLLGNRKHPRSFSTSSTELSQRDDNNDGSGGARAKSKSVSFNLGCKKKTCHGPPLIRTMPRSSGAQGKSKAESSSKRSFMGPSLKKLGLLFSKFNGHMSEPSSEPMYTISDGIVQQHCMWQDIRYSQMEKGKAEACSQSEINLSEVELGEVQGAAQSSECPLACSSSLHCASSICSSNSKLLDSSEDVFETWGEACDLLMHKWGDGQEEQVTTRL
Experiment: Fura-2 [Ca2+]i recordings, HEK 293 transiently expressing TRPC5-SYFP2
Type: cell-based
Details: 10-1000 nM; compound plate illuminated at 380 nm; EA 100 nM as maximum
Description: Müller, Niemeyer, et al., Schaefer & Thorn-Seshold 2025: Ideal Efficacy Photoswitching of TRPC4/5 in Tissue […]
1.4.4 Differences and selectivity between TRPC5 and TRPC4?
AM237 activates TRPC5 but inhibits EA mediated activation of TRPC4; Pico145 inhibits both TRPC4 and TRPC5. Thus, somewhat naively, it could be argued that it is the para substituent here which affects both the efficacy mode and the selectivity for TRPC4 and/or TRPC5.
Intriguingly, Z-AzPico activates TRPC4 and TRPC5 with low nanomolar potency whereas Z-AzHC only activates TRPC5 but not TRPC4. Therefore, the meta substituent is now responsible for the selectivity in this case. The cryo-EM structures of Pico145 and HC-070 in complex with TRPC5 indicated the same binding site but the southern phenyl ring bearing the OCF3/Cl group is flipped and pointing in opposite directions.
Z isomers, i.e. Z-buried vs. E-projected. Additionally, both E-AzPico and E-AzHC inhibit EA […]
It is not surprising that both ligands bind to either protein because there is a high sequence similarity among the TRPC family in the identified binding pocket for Pico145 /HC-070, and in the binding region, human TRPC4/5 differ only by a single amino acid (TRPC5: V579, TRPC4: I579). We […]
the result of differences in this residue. […]
Intracellular calcium ([Ca2+]i) was measured using the ratiometric Ca2+ dye Fura-2. […]

SMILES | Effect on [Ca2+]i, TRPC5
Cn1c(=O)n(CCCO)c(=O)c2c1nc(Oc1ccc(Cl)c(OC(F)(F)F)c1)n2Cc1ccc(Cl)cc1 [AM237, reference compound] | partial agonists
Cn1c(=O)n(CCCO)c(=O)c2c1nc(Oc1ccc(/N=N\c3ccccc3)c(Cl)c1)n2Cc1ccc(Cl)cc1 [Z*-AzHC] | partial agonists
